The structures appear in SMILES notation. Read-outs that look alike come from different tables or passages of the source.

Among the data in patent publication US11420976B2 (priority 2020, dated 2022) are EC50 values, retold here.

Experiment [1] has as its system rHMPV-GFP (recombinant HMPV CAN97-83, MPV-GFP1). Put plainly: HMPV antiviral assay (eGFP fluorescence in Vero E6 cells). The format is cell-based. As to conditions: read-out: rHMPV-GFP EC50. How it is done: HMPV antiviral activity was evaluated using a recombinant version of HMPV CAN97-83 engineered to contain the coding sequence for enhanced green fluorescence protein (eGFP) in the 3′ end of the virus genome (MPV-GFP1, ViraTree). Vero E6 cells (ATCC #CCL-7) were seeded at a density of 12,000 cells/100 μL/well into 96-well cell plates (VENDOR) one day prior to the assay. On the day of screening, the cell culture medium was aspirated from the wells and cells were washed twice with serum-free Eagle's Modified Essential Medium (EMEM, ATCC #) containing 1% penicillin-streptomycin (Invitrogen) (SF-EMEM). Cell washes were performed by dispensing 100 μL SF-EMEM per well and immediately aspirating the wash medium from the well. Following the second wash step, serum-free OptiMEM (Invitrogen, Cat No.) (SF-OptiMEM) containing 0.5 μg/mL TPCK-Trypsin (VENDOR) and 1% penicillin-streptomycin was added to the cells at 50 μL/well. Compounds were added into the 96-well plates using a JANUS automated liquid handling system (VENDOR). Compounds were initially diluted 1:50 into an intermediate 96-well plate containing SF-OptiMEM prior to transfer to the assay plate (25 μL/well). Each of the test compounds was tested in duplicate wells at final concentrations starting from 8 μM or 2 μM using ½ stepwise dilutions for a total of 8 points. Virus infection was performed by preparing a working stock of MPV-GFP1 at a multiplicity of infection (MOI) equal to 0.05/25 μL and aliquoting 25 μL of virus inoculum to the compound and positive control wells. SF-OptiMEM was added (25 μL/well) to the appropriate wells to serve as a virus-free negative control for the assay. The final DMSO concentration of all wells is 0.5%. Plates were incubated at 32° C., 5% CO2 for 5 days. After 5 days incubation, eGFP fluorescence intensity was measured at […] using a Spectramax i3X plate reader (VENDOR). Percent viral inhibition was calculated using the following equation: y=[[…]]×100 Where XQ is the fluorescence intensity measured in a well containing recombinant MPV-GFP1-infected, compound-treated cells and XP is the average fluorescence intensity measured in the wells containing untreated cells infected with recombinant virus. EC50 values were then calculated by non-linear regression using a four parameter curve logistic equation. The curve fit model employed was XLFit Dose Response One Site Model 200: y=(A+(B/(1+((x/C)^D)))) Where A is the minimum y value, B is the maximum y value, C is the log EC50 value, and D is the slope factor. The EC50 of each compound is listed in Table 2 and EC50 ranges are as follows: A<0.2 μM; B≥0.2 μM.

Experiment [2] deals with Human RSV-A (“Long” strain). Put plainly: RSV-A assay (CPE, ATPlite readout in Hep-2 cells). The format is cell-based. As to conditions: Hep-2 cells, MOI 0.1, 5-day incubation, ATPlite, read-out: Human RSV-A (“Long” strain) EC50. The text has this: Hep-2 cells, (originally derived from tumors grown in irradiated-cortisonised weanling rats that had been injected with epidermoid carcinoma tissue from a person's larynx, but later found to be indistinguishable from HeLa cells by PCR DNA analysis), were used for the culturing of genotype A, “Long” strain RSV. Flasks were inoculated with RSV and viral stocks were collected once cytopathic effect (CPE) was greater than 90%. Viral stocks in 25% sucrose media were snap frozen using liquid nitrogen to increase viral stability. Viral stock titers were quantified by tissue culture infectious dose 50% (TCID50) using 8,000 cells per well and 3-fold viral dilutions across a 96-well plate, cultured for 4 days. Viral stock titers were also quantified by a plaque forming unit assay, as described elsewhere.
Following extensive parameter testing, the final assay is run as follows: Hep-2 cells are seeded into the inner 60 wells of a 96-well plate at 8,000 cells per well in a volume of 50 μL using Growth Media (DMEM without phenol red, 1% L-Glut, 1% Penn/Strep, 1% nonessential amino acids, 10% heat-inactivated FBS). 2-fold serial dilutions of control and test compounds are added to the wells in duplicate in a total volume of 25 μL. Viral stock is then added to the wells at a multiplicity of infection (MOI) of 0.1 in a volume of 25 μL, bringing the total volume of each well to 100 μL. The MOI is calculated using the PFU/mL, or TCID50 if unavailable. Each 96-well plate has a control column of 6 wells with cells and virus but no compound (negative control, max CPE), a column with cells but no compound or virus (positive control, minimum CPE), and a column with no cells or virus or compound (background plate/reagent control). The control wells with cells but no virus are given an additional […], of growth media containing an equal quantity of sucrose as those wells receiving the viral stock in order to keep consistent in media and volume conditions. The outer wells of the plate are filled with 125 μL of moat media (DMEM, 1% Penn/Strep) to act as a thermal and evaporative moat around the test wells. Following a 5-day incubation period, the plates are read using ATPlite (50 uL added per well), which quantifies the amount of ATP (a measure of cell health) present in each well. Assay plates are read using the Envision luminometer. […] EC50 ranges are as follows: A<0.2 μM; B≥0.2 μM.
Background: Cellular ATP, detected with luciferase, serves as a proxy for viable cell number.

The mark [3] stands for this setting: human respiratory syncytial virus, 120 h.

As usually defined, the EC50 is the concentration at which the effect is half-maximal. Turning to `COc1cc(C(=O)NC[C@@](O)(CO)c2cc3c(c(-c4ccc(F)cc4)n2)OC[C@@]3(N)C(F)(F)F)ccc1OC1CC1` [Example 51, N—((S)-2-((R)-3-amino-7-(4-fluorophenyl)-3-(trifluoromethyl)-2,3-dihydrofuro[2,3-c]pyridin-5-yl)-2,3-dihydroxypropyl)-4-cyclopropoxy-3-methoxybenzamide], the EC50 is greater than 200 nM in experiment [1] (Vero C1008, 120 h) and less than 200 nM in experiment [2] (setting [3]).

As for `N[C@@]1(C(F)(F)F)COc2c1cc([C@@](O)(CNC(=O)c1ccc(OC3CC3)c(OC3CC3)c1)C1CC1)nc2-c1ccc(F)cc1` [Example 19, N—((S)-2-((R)-3-amino-7-(4-fluorophenyl)-3-(trifluoromethyl)-2,3-dihydrofuro[2,3-c]pyridin-5-yl)-2-cyclopropyl-2-hydroxyethyl)-3,4-dicyclopropoxybenzamide], the EC50 in experiment [1] (Vero C1008, 120 h) was less than 200 nM; in experiment [2] (setting [3]) it was less than 200 nM.

Turning to `N[C@@]1(C(F)(F)F)COc2c1cc([C@@](O)(CNC(=O)c1cc(OC3CC3)c3nn(C4CC4)cc3c1)C1CC1)nc2-c1ccc(F)c(Cl)c1` [Example 55d, N—((S)-2-((R)-3-amino-7-(3-chloro-4-fluorophenyl)-3-(trifluoromethyl)-2,3-dihydrofuro[2,3-c]pyridin-5-yl)-2-cyclopropyl-2-hydroxyethyl)-7-cyclopropoxy-2-cyclopropyl-2H-indazole-5-carboxamide], the concentration giving a half-maximal response (EC50) in experiment [1] (Vero C1008, 120 h) was less than 200 nM; in experiment [2] (setting [3]) it was less than 200 nM.

Regarding `N[C@@]1(C(F)(F)F)COc2c1cc([C@@](O)(CNC(=O)c1ccc(OC3CC3)c(OC3CC3)c1)C1CC1)nc2-c1ccc(F)c(F)c1` [Example 27, N—((S)-2-((R)-3-amino-7-(3,4-difluorophenyl)-3-(trifluoromethyl)-2,3-dihydrofuro[2,3-c]pyridin-5-yl)-2-cyclopropyl-2-hydroxyethyl)-3,4-dicyclopropoxybenzamide], the EC50 is less than 200 nM in experiment [1] (Vero C1008, 120 h) and less than 200 nM in experiment [2] (setting [3]).

Take `N[C@@]1(C(F)(F)F)COc2c1cc([C@@](O)(CNC(=O)c1ccc(OC3CC3)c(OC3CC3)c1)C1CC1)nc2-c1ccc(F)c(Cl)c1` [Example 29]: the EC50 in experiment [1] (Vero C1008, 120 h) was greater than 200 nM; in experiment [2] (human respiratory syncytial virus, in Homo sapiens, 120 h), less than 200 nM.

In the case of `COc1cc(C(=O)NC[C@H](O)c2cc3c(c(-c4ccc(F)cc4)n2)OC[C@@]3(N)C(F)(F)F)ccc1OC1CC1` [Example 47], the EC50 was greater than 200 nM in experiment [1] (Vero C1008, 120 h) and greater than 200 nM in experiment [2] (setting [3]).

Take `N[C@@]1(C(F)(F)F)COc2c1cc([C@@](O)(CNC(=O)c1cc(OC3CC3)c3ncccc3c1)C1CC1)nc2-c1ccc(F)c(Cl)c1` [Example 30, N—((S)-2-((R)-3-amino-7-(3-chloro-4-fluorophenyl)-3-(trifluoromethyl)-2,3-dihydrofuro[2,3-c]pyridin-5-yl)-2-cyclopropyl-2-hydroxyethyl)-8-cyclopropoxyquinoline-6-carboxamide]: the EC50 in experiment [1] (Vero C1008, 120 h) was greater than 200 nM; in experiment [2] (setting [3]) it was less than 200 nM.

On to `COc1cc(C(=O)NC[C@](O)(c2cc3c(c(-c4ccc(F)c(F)c4)n2)OC[C@@]3(N)C(F)(F)F)C2CC2)ccc1OC1CC1` [Example 23, N—((S)-2-((R)-3-amino-7-(3,4-difluorophenyl)-3-(trifluoromethyl)-2,3-dihydrofuro[2,3-c]pyridin-5-yl)-2-cyclopropyl-2-hydroxyethyl)-4-cyclopropoxy-3-methoxybenzamide], for which the EC50 in experiment [1] (Vero C1008, 120 h) was less than 200 nM; in experiment [2] (setting [3]) it was less than 200 nM.

Turning to `Cn1cc2cc(C(=O)NC[C@](O)(c3cc4c(c(-c5ccc(F)cc5)n3)OC[C@@]4(N)C(F)(F)F)C3CC3)cc(OC3CC3)c2n1` [Example 66, N—((S)-2-((R)-3-amino-7-(4-fluorophenyl)-3-(trifluoromethyl)-2,3-dihydrofuro[2,3-c]pyridin-5-yl)-2-cyclopropyl-2-hydroxyethyl)-7-cyclopropoxy-2-methyl-2H-indazole-5-carboxamide], the EC50 in experiment [1] (Vero C1008, 120 h) was less than 200 nM; in experiment [2] (setting [3]), less than 200 nM.

For the compound `C[C@](O)(CNC(=O)c1ccc(OC2CC2)c(OC2CC2)c1)c1cc2c(c(-c3ccc(F)c(Cl)c3)n1)OC[C@@]2(N)C(F)(F)F` [Example 28, N—((S)-2-((R)-3-amino-7-(3-chloro-4-fluorophenyl)-3-(trifluoromethyl)-2,3-dihydrofuro[2,3-c]pyridin-5-yl)-2-hydroxypropyl)-3,4-dicyclopropoxybenzamide], the EC50 in experiment [1] (Vero C1008, 120 h) was less than 200 nM; in experiment [2] (setting [3]), less than 200 nM.

Take `COc1cc(C(=O)NC[C@@](O)(CF)c2cc3c(c(-c4ccc(F)cc4)n2)OC[C@@]3(N)C(F)(F)F)ccc1OC1CC1` [Example 8]: the concentration for a half-maximal effect (EC50) in experiment [1] (Vero E6 cells, MOI 0.05, 5 days at 32° C., eGFP fluorescence) is less than 200 nM; in experiment [2], less than 200 nM.

For `COc1cc(C(=O)NC[C@](O)(c2cc3c(c(-c4ccc(F)cc4)n2)OC[C@@]3(N)C(F)(F)F)C2CC2)cc2sc(N)nc12` [Example 53, 2-amino-N—((S)-2-((R)-3-amino-7-(4-fluorophenyl)-3-(trifluoromethyl)-2,3-dihydrofuro[2,3-c]pyridin-5-yl)-2-cyclopropyl-2-hydroxyethyl)-4-methoxybenzo[d]thiazole-6-carboxamide], the EC50 in experiment [2] (setting [3]) is less than 200 nM.

Turning to `COC(=O)N[C@@]1(C(F)(F)F)COc2c1cc([C@@](O)(CNC(=O)c1ccc(OC3CC3)c(OC)c1)C(F)(F)F)nc2-c1ccc(F)cc1` [Example 44], the EC50 in experiment [2] (setting [3]) was greater than 200 nM.

Consider `COc1cc(C(=O)NC[C@](C)(O)c2cc3c(c(-c4ccc(F)cc4)n2)OC[C@@]3(NS(=O)(=O)C(C)(C)C)C(F)(F)F)cc2cccnc12` [Example 46], for which, in experiment [2] (setting [3]), the EC50 was greater than 200 nM.

For `Cn1cc2cc(C(=O)NC[C@](O)(c3cc4c(c(-c5ccc(F)cc5)n3)OC[C@@]4(N)C(F)(F)F)C3CC3)cc(F)c2n1` [Example 64], the EC50 in experiment [2] (setting [3]) was less than 200 nM.

Turning to `COc1cnc(C(=O)NC[C@](O)(c2cc3c(c(-c4ccc(F)cc4)n2)OC[C@@]3(N)C(F)(F)F)C(F)(F)F)cc1OC` [Example 35], the EC50 in experiment [2] (setting [3]) was greater than 200 nM.

As to `COc1cc(C(=O)NC[C@](O)(c2cc3c(c(-c4ccc(F)cc4)n2)OC[C@@]3(N)C(F)(F)F)C(F)(F)F)ccc1OCC(C)C` [Example 36], the EC50 in experiment [2] (setting [3]) was greater than 200 nM.

Turning to `COc1cc(C(=O)NC[C@](O)(c2cc3c(c(-c4ccc(F)cc4)n2)OC[C@@]3(N)C(F)(F)F)C(F)(F)F)nc2ccccc12` [Example 40], the EC50 in experiment [2] (setting [3]) is greater than 200 nM.

Regarding `N[C@@]1(C(F)(F)F)COc2c1cc([C@@](O)(CNC(=O)c1cc(OC3CC3)c3c(ccc[n+]3[O-])c1)C1CC1)nc2-c1ccc(F)cc1` [Example 59b], in experiment [2] (setting [3]), the half-maximal effective concentration (EC50) was greater than 200 nM.
